Laboratory results: patent publication US6211439A, “Herbicide resistance in plants” (MGI Pharma, Inc, priority 1995, dated 2001)
In brackets after ≈: the same amount, converted by molar mass. Like-named read-outs stand apart in the source and are kept apart here.

Tests used:
[1] = system: Black Mexican Sweet Corn cell suspension cultures; experiment: Growth inhibition of maize cell suspension cultures; type: cell-based
Procedure: Nonregenerable Black Mexican Sweet Corn cell suspension cultures (i.e., cell cultures which lack the ability to regenerate plants) were obtained from Dr. Burle Gengenbach, Department of Agronomy and Plant Genetics, University of Minnesota, St. Paul, Minn. Stock cell cultures were maintained in liquid Murashige and Skoog (MS) medium (Murashige and Skoog, 1962, Physiol. Plant 15: 473) containing 2 mg of 2,4-dichlorophenoxyaceticacid (2,4-D) per liter, and subcultured weekly by diluting to 1/10 the original volume with fresh medium. Cultures were grown in the dark at 26° C. in 500 ml flasks containing 125 ml media.
(§1) Growth inhibition studies were carried out in 125 ml flasks containing 30 ml of test media. 997 was filter sterilized and added to cooling media following autoclaving. Test media were innoculated with cells to give a settled cell volume (15 minutes without centrifugation) of 0.2 ml per 10 ml of suspension. After either six or seven days growth settled cell volumes were again quantitated.
To determine whether the effects of 214 were reversible, Black Mexican Sweet Corn cells growing in liquid suspension culture were exposed to 0.03 mg per liter 214 for various periods of time up to 72 hours. […] The cells were then washed with herbicide-free media and the growth rate evaluated again in the absence of herbicide.

line XA17 tissue = experiment: Callus growth inhibition, resistant line XA17; type: cell-based, maize; conditions: Zea mays, 336 h, read-out: level giving a 50% growth inhibition
Procedure: (§2) Therefore the effects of 214 were determined on callus growth. Quantities of tissue averaging 90 mg in size were transferred to nutrient agar maintenance media containing concentrations of 214 ranging from 0.003 to 3 mg per liter. Eight tissue pieces were placed on each plate with three plates per herbicide concentration. After 14 days growth, the tissue was weighed again.
Initially, the maximum level of 214 in which line XA17 would grow stably was determined. Stock tissue which had been maintained in the presence of 0.1 mg per liter 214 was transferred to media containing 214 levels ranging up to 30 mg per liter. Tissue was maintained for several subculture intervals and the growth rate evaluated.

[2] = system: maize cell suspension cultures; experiment: Reversal of herbicide growth inhibition by leucine, valine and isoleucine; type: cell-based; set-up: key to Cell suspension culture growth, (+) 997: settled cell volume, ml per 10 ml of suspension
Procedure: as §1
Cells were tested to determine whether the herbicide induced inhibition of growth was the result of the decreased availability of the three branched chain amino acids. Cells were exposed to toxic levels of 997 (1×10^-6 M) in media either supplemented with 1 mM concentrations of leucine, valine, and isoleucine or with no supplementation. Culture growth rates in the absence of amino acid supplementation and in the presence of 1×10^-6 M 997 were reduced to 16% that of herbicide free cultures.
Experiments were conducted to determine the optimum supplementation levels of each of the three amino acids to obtain maximum herbicide protection and for gaining insight into the site of action of the compound.

[3] = system: Callus tissue from line QJ22; experiment: Callus growth inhibition, line QJ22; type: cell-based, maize; conditions: line QJ22 vs control tissue; based on herbicide amount giving 50% reduction in growth rate
Procedure: (§3) Callus tissue from line QJ22 was tested also with the compound 567. The numbers represent the fold increase in herbicide concentration that can be tolerated by each of the cell lines as compared to control tissue. The values were calculated based on the amount of herbicide that gave a 50% reduction in growth rate.

[4] = system: Callus tissue from line UV18; experiment: Callus growth inhibition, line UV18; type: cell-based, maize; conditions: for Callus Growth Fold Increase in Tolerance: line UV18 vs control tissue, based on herbicide amount giving 50% reduction in growth rate
Procedure: The UV18 cell line was first observed after 25 weeks of selection comprising 9 subculture intervals. The tissue in the selection procedure had been exposed to 0.1 mg per liter 214 for four subculture intervals followed by exposure to 0.3 mg per liter 214 for four subculture intervals. UV18 was identified during the ninth subculture as a rapidly growing sector of tissue with good morphology.
as §3

[5] = system: acetohydroxyacid synthase (AHAS); experiment: AHAS activity assay, extract of maize cell cultures / control tissue; type: biochemical
Procedure: Plant cell culture material was ground with sand in a cold mortar and pestle in an equal quantity (w/v) of cell disruption media containing 0.05 M potassium phosphate (pH 7.0), 0.1 mM MgSO4, and 0.5 mM dithiothreitol. The preparation was centrifuged at 11,000×g for 20 minutes and the supernatant assayed for AHAS activity. Assays were conducted in 1 ml volumes containing 0.05 M potassium phosphate (pH 8.0), 40 mM pyruvate, 5 mM MgCl2, 0.1 mM thiamine pyrophosphate, 0.2 ml cell extract, and various concentrations of the herbicide of interest. The reaction mixtures were incubated at 30° C. for 75 minutes and the reaction terminated with the addition of 0.1 ml of 50% (v/v) H2 SO4. […] To 0.2 ml of reaction mixture, 0.8 ml of water, 0.5 ml of 0.5% (w/v) creatine, and 0.5 ml of 5% (w/v) naphthol in 10% (w/v) NaOH was added. After mixing, solutions were incubated at room temperature for one hour.

[6] = system: unselected maize callus tissue; experiment: Callus culture growth inhibition, unselected tissue; type: cell-based; conditions: for IC50: Zea mays, 336 h
Procedure: as §2

[7] = AHAS activity of control tissue, read-out: concentration inhibiting AHAS activity 50%
[8] = read-out: level giving a 50% growth inhibition

CC(C)C1(C)NC(c2nc3ccccc3cc2C(=O)O)=NC1=O (centres unmarked) [compound 214, 2-(5-isopropyl-5-methyl-4-oxo-2-imidazolin-2-yl)3-quinolinecarboxylic acid] was tested, and the “Growth of cells in liquid suspension culture” value ([1]; 0.03 mg per liter 214, up to 72 hours) was “completely inhibited”, the “growth rate after washing with herbicide-free media” value ([1]; after exposure to 0.03 mg per liter 214 up to 72 hours) was “rapidly return to an uninhibited growth rate” and the IC50 (line XA17 tissue) was 30 mg/L (≈ 96.4 µM). For the same molecule, the “effect of media supplementation with leucine, isoleucine, valine on growth inhibition” value ([2]; 1 mM each of leucine, isoleucine, and valine, cell suspension cultures) was “reversed the growth inhibitory effects”, the “Callus Growth Fold Increase in Tolerance” value [3] was 5 fold and the “growth of UV18 tissue in presence of herbicide” value ([4]; 0.3 mg per liter 214, vs control tissue in the absence of herbicide) was “grew as rapidly”. For the same molecule, the “Callus Growth Fold Increase in Tolerance” value [4] was 100 fold, the “effect on AHAS enzyme activity” value ([5]; AHAS activity from maize cell cultures) was “inhibited the enzyme activity” and the IC50 [5, 7] was 1 to 10 µM. For the same molecule, the Cell death ([6]; 14 day period, 0.003 to 3 mg per liter) was “not observed to occur”, the IC50 ([6]; read-out: concentration giving half maximal inhibition of callus growth rate) was 0.1 to 0.3 mg/L (≈ 0.321 to 0.964 µM) and the IC50 [6, 8] was 0.1 to 0.3 mg/L (≈ 0.321 to 0.964 µM).

With CC(C)C1(C)NC(c2ncccc2C(=O)O)=NC1=O (centres unmarked) [compound 997, 2-(5-isopropyl-5-methyl-4-oxo-2-imidazolin-2-yl)nicotinic acid] the “herbicide concentration giving 50% growth inhibition” value ([1]; suspension cultures, concentration in the media, settled cell volume after six or seven days) was 1 to 3×10^-8 M, the IC50 (line XA17 tissue) was greater than 30 mg/L and the “Cell suspension culture growth, (+) 997” value ([2]; 0.3 ile) was “.33”. For the same molecule, the “Cell suspension culture growth, (+) 997” value ([2]; 0.3 leu) was “.29”, the “Cell suspension culture growth, (+) 997” value ([2]; 0.3 val) was “.48” and the “Culture growth rate relative to control cultures” value ([2]; 1×10^-6 M 997, media supplemented with 1 mM leucine, valine, and isoleucine) was 91%. The “effect of media supplementation with leucine, valine, isoleucine on growth inhibition” value ([2]; 997 ranging in concentration from 1×10^-8 to 1×10^-3 M) was “could reverse the growth inhibitory effects”, the “Cell suspension culture growth, (+) 997” value ([2]; Leucine, Valine, Isoleucine 1,1,1) was 1.88 and the “Cell suspension culture growth, (+) 997” value ([2]; Leucine, Valine, Isoleucine 1,1,.1) was “.93”. For the same molecule, the “Cell suspension culture growth, (+) 997” value ([2]; Leucine, Valine, Isoleucine 1,1,.3) was 1.55, the “Cell suspension culture growth, (+) 997” value ([2]; Leucine, Valine, Isoleucine 1,.1,1) was 1.28 and the “Cell suspension culture growth, (+) 997” value ([2]; Leucine, Valine, Isoleucine 1,.1,.1) was 1.03. The “Cell suspension culture growth, (+) 997” value ([2]; Leucine, Valine, Isoleucine 1,.1,.3) was 1.38, the “Cell suspension culture growth, (+) 997” value ([2]; Leucine, Valine, Isoleucine 1,.3,1) was 1.45 and the “Cell suspension culture growth, (+) 997” value ([2]; Leucine, Valine, Isoleucine 1,.3,.1) was “.98”. For the same molecule, the “Cell suspension culture growth, (+) 997” value ([2]; Leucine, Valine, Isoleucine 1,.3,.3) was 1.40, the “Cell suspension culture growth, (+) 997” value ([2]; Leucine, Valine, Isoleucine .1,1,1) was “.60” and the “Cell suspension culture growth, (+) 997” value ([2]; Leucine, Valine, Isoleucine .1,1,.1) was “.83”. The “Cell suspension culture growth, (+) 997” value ([2]; Leucine, Valine, Isoleucine .1,1,.3) was “.68”, the “Cell suspension culture growth, (+) 997” value ([2]; Leucine, Valine, Isoleucine .1,.1,1) was “.58” and the “Cell suspension culture growth, (+) 997” value ([2]; Leucine, Valine, Isoleucine .1,.1,.1) was “.70”. For the same molecule, the “Cell suspension culture growth, (+) 997” value ([2]; Leucine, Valine, Isoleucine .1,.1,.3) was “.68”, the “Cell suspension culture growth, (+) 997” value ([2]; Leucine, Valine, Isoleucine .1,.3,1) was “.80” and the “Cell suspension culture growth, (+) 997” value ([2]; Leucine, Valine, Isoleucine .1,.3,.1) was “.75”. For the same molecule, the “Cell suspension culture growth, (+) 997” value ([2]; Leucine, Valine, Isoleucine .1,.3,.3) was “.90”, the “Cell suspension culture growth, (+) 997” value ([2]; Leucine, Valine, Isoleucine .3,1,1) was 1.30 and the “Cell suspension culture growth, (+) 997” value ([2]; Leucine, Valine, Isoleucine .3,1,.1) was 1.08. For the same molecule, the “Cell suspension culture growth, (+) 997” value ([2]; Leucine, Valine, Isoleucine .3,1,.3) was 1.30, the “Cell suspension culture growth, (+) 997” value ([2]; Leucine, Valine, Isoleucine .3,.1,1) was “.80” and the “Cell suspension culture growth, (+) 997” value ([2]; Leucine, Valine, Isoleucine .3,.1,.1) was “.70”. The “Cell suspension culture growth, (+) 997” value ([2]; Leucine, Valine, Isoleucine .3,.1,.3) was “.95”, the “Cell suspension culture growth, (+) 997” value ([2]; Leucine, Valine, Isoleucine .3,.3,1) was 1.08 and the “Cell suspension culture growth, (+) 997” value ([2]; Leucine, Valine, Isoleucine .3,.3,.1) was “.95”. The “Cell suspension culture growth, (+) 997” value ([2]; Leucine, Valine, Isoleucine .3,.3,.3) was 1.18, the “Cell suspension culture growth, (+) 997” value ([2]; No Supplementation (4 replicates)) was 0.30 and the activity at 1 µM ([2]; Zea mays, 1×10^-6 M 997, absence of amino acid supplementation, read-out: Culture growth rate relative to herbicide free cultures) was 16%. For the same molecule, the “Callus Growth Fold Increase in Tolerance” value [3] was 30-50 fold, the “Callus Growth Fold Increase in Tolerance” value [4] was 100 fold and the IC50 ([5]; AHAS activity from maize cell cultures, read-out: concentration reducing AHAS enzyme activity 50%) was 8 µM. The IC50 [5, 7] was 1 to 10 µM and the IC50 [6, 8] was 0.1 to 0.3 mg/L (≈ 0.383 to 1.15 µM).
